According to patent US8044089B2, “3-3-di-substituted-oxindoles as inhibitors of translation initiation” (President and Fellows of Harvard College, priority 2004, dated 2011):

Legend:
[1] = system: intracellular Ca^2+ stores; assay: Ca2+ release from intracellular stores (FURA-2AM loaded cells); assay type: cell-based; design: key to Ca^2+ (Ca^2+ release from intracellular stores): a “+” denotes release; a “+/−” denotes inconclusive
Outline: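 Ca2+ release scored in FURA-2AM loaded cells as "+" (release) or "+/−" (inconclusive); some compounds also tested with ER-targeted FRET Ca2+ sensors. Ca2+-depleting compounds were then tested for eIF2α phosphorylation by Western blot with phospho-specific anti-eIF2α antibody.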

A549 lung cancer cells = assay: SRB growth inhibition of A549 lung cancer cells; assay type: cell-based, human; settings: A549 lung cancer cells; unit inferred; read-out: SRB (IC50 for growth inhibition of A549 lung cancer cells)
eIF2α = eIF2α phosphorylation measured by Western blot; assay type: cell-based; settings: for eIF2α-P (phosphorylation of eIF2α measured by Western blot): unit or reference not given
Excerpt: As a non-limiting example, compounds 1272 and 1273 (set forth in Table 1) were synthesized starting from 3-bromoaniline, which upon condensation with hydroxylamine and chloral hydrate followed by concentrated sulfuric acid yielded an inseparable regioisomeric mixture of 4- and 6-bromo isatins. The addition of the two phenyl groups to the three position of the oxindole allowed easy chromatographic separation of the 4- and 6-bromo-3,3-diphenyloxindoles 1272 and 1273. Table 1 sets forth biological data for diaryloxindole compounds including, but not limited to 1272 and 1273. For Tables 1-14, Ca^2+ refers to Ca^2+ release from intracellular stores where a “+” denotes release and a “+/−” denotes inconclusive; eIF2α-P refers to phosphorylation of eIF2α measured by Western blot; SRB refers to the inhibitory concentration to reduce cell growth by 50% (IC50) for growth inhibition of A549 lung cancer cells; and n.d. is not determined.
Without intending to be bound by theory, the mechanism of action of translation initiation inhibitors is set forth in FIG. 1, and includes the depletion (complete or partial depletion) of intracellular calcium (Ca^2+) stores and phosphorylation of eIF2α. Compounds synthesized using the approaches described herein were screened for their ability to partially deplete intracellular Ca^2+ stores using FURA-2AM loaded cells (Benzaquen et al. (1995) Nature Medicine, 1:534, incorporated herein by reference in its entirety for all purposes). A limited subset of compounds were further screened for their ability to deplete endoplasmic reticulum (ER) Ca^2+. The Ca^2+ content of the ER was monitored using ER-targeted, Ca^2+ sensitive, recombinant proteins. These recombinant proteins emitted light by fluorescent resonance energy transfer (FRET) as a function of the Ca^2+ content of the medium. Such assays are previously described (Miyawaki, A.; Mizuno, H.; Llopis, J.; Tsien, R. Y.; Jalink, K. Cameleons as cytosolic and intra-organellar calcium probes, Oxford University Press: Oxford, London, 2001; pp 3-16, incorporated herein by reference in its entirety for all purposes). Compounds that depleted Ca^2+ were further evaluated for their ability to phosphorylate eIF2α. eIF2α phosphorylation was measured by Western blot analysis using the phospho-specific anti-eIF2α antibody, as previously described (Aktas et al. (1998) Proc. Natl. Acad. Sci. USA, 95:8280, incorporated herein by reference in its entirety for all purposes).

SMILES | IC50 (A549 lung cancer cells) [µM] | Ca^2+ (Ca^2+ release from intracellular stores) [1] | eIF2α-P (phosphorylation of eIF2α measured by Western blot) (eIF2α) | Ca^2+ release / depletion of intracellular Ca^2+ (in words) [1] | eIF2α phosphorylation (in words) (eIF2α)
O=C1Nc2ccccc2C1(c1ccccc1)c1ccc(O)c(C(F)(F)F)c1 (centres unmarked) [Compound 1242] | 14 | + | 2.72 |  | 
CC(C)(C)c1ccc(O)c(C2(c3ccccc3)C(=O)Nc3c(I)cccc32)c1 (centres unmarked) [Compound 1253] | 6 | + | 2.05 |  | 
O=C1Nc2ccccc2C1(c1ccc(Cl)cc1)c1ccccc1O (centres unmarked) [Compound 1208] | 10 | + | 1.42 |  | 
O=C1Nc2c(Br)cccc2C1(c1ccccc1)c1ccccc1 [Compound 1207] | 3 | +/− | 2.01 | abrogated Ca^2+ depletion activity | none of the compounds exhibited an increase in eIF2α phosphorylation relative to compound 1392
O=C1Nc2cccc(Br)c2C1(c1ccccc1)c1ccccc1 [Compound 1272] | 8 | + | 1.63 |  | none of the compounds exhibited an increase in eIF2α phosphorylation relative to compound 1392
CC(C)(C)c1ccc(O)c(C2(c3ccccc3)C(=O)Nc3ccc([N+](=O)[O-])cc32)c1 (centres unmarked) [Compound 1212] | 4 | + | 1.28 |  | 
C=CCN1C(=O)C(c2ccccc2)(c2cc(C(C)(C)C)ccc2O)c2ccccc21 (centres unmarked) [Compound 1236] | 3 | +/− | 2.23 |  | 
O=C1Nc2cc(Br)ccc2C1(c1ccccc1)c1ccccc1 [Compound 1273] | 6 | + | 1.72 |  | none of the compounds exhibited an increase in eIF2α phosphorylation relative to compound 1392
CC(C)(C)c1ccc(O)c(C2(c3ccccc3)C(=O)Nc3cccc(Br)c32)c1 (centres unmarked) [Compound 1234] | 6 | + | 2.57 |  | 
CCCCCCCCCc1ccc(O)c(C2(c3ccccc3)C(=O)Nc3ccccc32)c1 (centres unmarked) [Compound 1280] | 3 | +/− | 3.89 |  | 
CC(C)(C)c1ccc(O)c(C2(c3cccc(Cl)c3)C(=O)Nc3ccccc32)c1 (centres unmarked) [Compound 1221] | 3 | + | 3.24 |  | 
CCc1ccc2c(c1)C(c1ccccc1)(c1cc(C(C)(C)C)ccc1O)C(=O)N2 (centres unmarked) [Compound 1254] | 4 | + | 2.12 |  | 
O=C1Nc2ccccc2C1(c1ccccc1)c1ccc(O)cc1 (centres unmarked) [Compound 1295] | 16 | + | 1.66 |  | 
CCc1cccc2c1C(c1ccccc1)(c1cc(C(C)(C)C)ccc1O)C(=O)N2 (centres unmarked) [Compound 1257] | 10 | + | 1.11 |  | 
CC(C)(C)c1ccc(O)c(C2(c3ccccc3)C(=O)Nc3ccc(N)cc32)c1 (centres unmarked) [Compound 1231] | 14 | + | 1.46 |  | 
O=C1Nc2ccc(Br)cc2C1(c1ccccc1)c1ccccc1 [Compound 1205] | 9 | + | 2.05 |  | none of the compounds exhibited an increase in eIF2α phosphorylation relative to compound 1392
CCCCCCc1ccc(O)c(C2(c3ccccc3)C(=O)Nc3ccccc32)c1 (centres unmarked) [Compound 1288] | 3 | + | 6.28 |  | 
O=C1Nc2ccccc2C1(c1ccccc1)c1ccccc1O (centres unmarked) [Compound 1197] | 14 | + | 1.50 |  | 
O=C1Nc2ccccc2C1(c1ccccc1)c1ccc(O)c(F)c1 (centres unmarked) [Compound 1244] | 12 | + | 1.38 |  | 
COc1cccc(C2(c3ccccc3)C(=O)Nc3ccccc32)c1 (centres unmarked) [Compound 1293] | 14 | +/− | 1.30 |  | 
Cc1ccc(O)c(C2(c3ccccc3)C(=O)Nc3ccccc32)c1 (centres unmarked) [Compound 1278] | 8 | + | 3.33 |  | 

The next lines start with results.

IC50 (A549 lung cancer cells) [µM] | SMILES | Ca^2+ (Ca^2+ release from intracellular stores) [1] | eIF2α-P (phosphorylation of eIF2α measured by Western blot) (eIF2α) | Ca^2+ release / depletion of intracellular Ca^2+ (in words) [1] | eIF2α phosphorylation (in words) (eIF2α)
> 20 | CC(C)(C)c1ccc(O)c(C2(c3ccccc3)C(=O)Nc3c(C(=O)O)cccc32)c1 (centres unmarked) [Compound 1408] | + | 2.08 |  | 
9 | Cc1cc(C2(c3ccccc3)C(=O)Nc3c(C(=O)O)cccc32)c(NC(=O)OCC2c3ccccc3-c3ccccc32)cc1O (centres unmarked) [Compound 1394] | + | 8.21 |  | 
4 | Cc1cc(C2(c3ccccc3)C(=O)Nc3ccccc32)c(NS(=O)(=O)Cc2ccccc2)cc1O (centres unmarked) [Compound 1405] | + | 1.84 |  | 
5 | O=C1Nc2ccccc2C1(c1ccccc1)c1ccc(OCCO)cc1 (centres unmarked) [Compound 1299] | + | 0.71 |  | 
5 | Nc1ccc(CCNC(=O)c2ccc(Cl)c3c2NC(=O)C3(c2ccccc2)c2ccccc2)cc1 [Compound 1355] | +/− | 3.80 |  | 
5 | COc1ccc(S(=O)(=O)Nc2cc(O)c(C)cc2C2(c3ccccc3)C(=O)Nc3ccccc32)cc1 (centres unmarked) [Compound 1590] | + | 1.12 |  | 
8 | CC(C)Cc1ccc(C2(c3ccccc3)C(=O)Nc3ccccc32)cc1 (centres unmarked) [Compound 1297] | + | 0.7 |  | 
8 | CCCCc1ccc(C2(c3ccccc3)C(=O)Nc3ccccc32)cc1 (centres unmarked) [Compound 1298] | +/− | 0.45 |  | 
9 | COC(=O)COc1ccc(C(C)(C)C)cc1C1(c2ccccc2)C(=O)Nc2ccccc21 (centres unmarked) [Compound 1402] | + | 3.94 |  | 
> 20 | COC(=O)c1cccc2c1NC(=O)C2(c1ccccc1)c1ccccc1 [Compound 1354] | + | 1.74 |  | 
> 20 | Cc1cc(C2(c3ccccc3)C(=O)Nc3c(C(=O)O)cccc32)c(NS(C)(=O)=O)cc1O (centres unmarked) [Compound 1417] | + | 0.96 |  | 
